The IC50 is the concentration that gives 50% inhibition. Higher therefore signals weaker potency in that assay.

In the assay the test system is GM1 production in Jurkat cells. Kind of assay: cells. It counts as cell-based. Conditions: Homo sapiens, Jurkat, 72 h.
Molecule `CCCOc1ccc(-c2ccc3c(c2)CC(C)(C)C3NC(=O)O[C@@H]2CN3CCC2CC3)cn1` (stereo partly drawn) [Example 265, (S)-quinuclidin-3-yl (2,2-dimethyl-5-(6-propoxypyridin-3-yl)-2,3-dihydro-1H-inden-1-yl)carbamate] displayed an IC50 of 6.7 nM.
The molecule `CCCCOc1ccc(-c2ccc3c(c2)CC(C)(C)C3NC(=O)O[C@@H]2CN3CCC2CC3)cn1` (stereo partly drawn) [Example 266, (S)-quinuclidin-3-yl (5-(6-butoxypyridin-3-yl)-2,2-dimethyl-2,3-dihydro-1H-inden-1-yl)carbamate] had an IC50 of 4.7 nM.
The value for `COCCOc1ccc(-c2ccc3c(c2)CC(C)(C)C3NC(=O)O[C@@H]2CN3CCC2CC3)cn1` (stereo partly drawn) [Example 267, (S)-quinuclidin-3-yl (5-(6-(2-methoxyethoxy)pyridin-3-yl)-2,2-dimethyl-2,3-dihydro-1H-inden-1-yl)carbamate] was 83.1 nM.
In the case of `CC(C)COc1ccc(-c2ccc3c(c2)CC(C)(C)C3NC(=O)O[C@@H]2CN3CCC2CC3)cn1` (stereo partly drawn) [Example 268, (S)-quinuclidin-3-yl (5-(6-isobutoxypyridin-3-yl)-2,2-dimethyl-2,3-dihydro-1H-inden-1-yl)carbamate], the IC50 is 2.5 nM.
Then `CC(C)Cc1cccc(-c2ccc3c(c2)CC(C)(C)C3NC(=O)O[C@@H]2CN3CCC2CC3)c1` (stereo partly drawn) [Example 269, (S)-quinuclidin-3-yl (5-(3-isobutylphenyl)-2,2-dimethyl-2,3-dihydro-1H-inden-1-yl)carbamate], with 6.5 nM.
Then `CCCCOc1ccc(-c2ccc3c(c2)CC(C)(C)C3NC(=O)O[C@@H]2CN3CCC2CC3)cc1` (stereo partly drawn) [Example 270, (S)-quinuclidin-3-yl (5-(4-butoxyphenyl)-2,2-dimethyl-2,3-dihydro-1H-inden-1-yl)carbamate], with 2.3 nM; and `COc1ccnc(OC)c1-c1ccc2c(c1)CC(C)(C)C2NC(=O)O[C@@H]1CN2CCC1CC2` (stereo partly drawn) [Example 271, (S)-quinuclidin-3-yl (5-(2,4-dimethoxypyridin-3-yl)-2,2-dimethyl-2,3-dihydro-1H-inden-1-yl)carbamate], with 30.6 nM.
Then `CC(=O)c1sccc1-c1ccc2c(c1)CC(C)(C)C2NC(=O)O[C@@H]1CN2CCC1CC2` (stereo partly drawn) [Example 272, (S)-quinuclidin-3-yl (5-(2-acetylthiophen-3-yl)-2,2-dimethyl-2,3-dihydro-1H-inden-1-yl)carbamate], with 49.3 nM.
In the case of `CC1(C)Cc2cc(/C=C/c3cccc(F)c3)ccc2C1NC(=O)O[C@@H]1CN2CCC1CC2` (stereo partly drawn) [Example 273, (S)-quinuclidin-3-yl (5-((E)-3-fluorostyryl)-2,2-dimethyl-2,3-dihydro-1H-inden-1-yl)carbamate], 13.4 nM corresponded to half-maximal inhibition (IC50).
Then `CCc1ccc(/C=C/c2ccc3c(c2)CC(C)(C)C3NC(=O)O[C@@H]2CN3CCC2CC3)cc1` (stereo partly drawn) [Example 274, (S)-quinuclidin-3-yl (5-((E)-4-ethylstyryl)-2,2-dimethyl-2,3-dihydro-1H-inden-1-yl)carbamate], with 10.3 nM; and `CC1(C)Cc2cc(/C=C/C3CCCCC3)ccc2C1NC(=O)O[C@@H]1CN2CCC1CC2` (stereo partly drawn) [Example 275, (S)-quinuclidin-3-yl (5-((E)-2-cyclohexylvinyl)-2,2-dimethyl-2,3-dihydro-1H-inden-1-yl)carbamate], with 25 nM; and `CCC1(CC)Cc2cc(-c3ccc(F)cc3)ccc2C1NC(=O)O[C@@H]1CN2CCC1CC2` (stereo partly drawn) [Example 276, (S)-quinuclidin-3-yl (2,2-diethyl-5-(4-fluorophenyl)-2,3-dihydro-1H-inden-1-yl)carbamate], with 33.2 nM.
`CCc1ccc(-c2ccc3c(c2)CC(CC)(CC)C3NC(=O)O[C@@H]2CN3CCC2CC3)cc1` (stereo partly drawn) [Example 277, (S)-quinuclidin-3-yl (2,2-diethyl-5-(4-ethylphenyl)-2,3-dihydro-1H-inden-1-yl)carbamate]: the IC50 amounted to 2.7 nM.
The value for `CCCc1ccc(-c2ccc3c(c2)CC(CC)(CC)C3NC(=O)O[C@@H]2CN3CCC2CC3)cc1` (stereo partly drawn) [Example 278, (S)-quinuclidin-3-yl (2,2-diethyl-5-(4-propylphenyl)-2,3-dihydro-1H-inden-1-yl)carbamate] was 6 nM; that for `CCC1(CC)Cc2cc(-c3ccc(C(C)(C)C)cc3)ccc2C1NC(=O)O[C@@H]1CN2CCC1CC2` (stereo partly drawn) [Example 279, (S)-quinuclidin-3-yl (5-(4-(tert-butyl)phenyl)-2,2-diethyl-2,3-dihydro-1H-inden-1-yl)carbamate] was 7.3 nM; that for `CCCCc1ccc(-c2ccc3c(c2)CC(CC)(CC)C3NC(=O)O[C@@H]2CN3CCC2CC3)cc1` (stereo partly drawn) [Example 280, (S)-quinuclidin-3-yl (5-(4-butylphenyl)-2,2-diethyl-2,3-dihydro-1H-inden-1-yl)carbamate] was 1.6 nM.
The value for `CCC1(CC)Cc2cc(-c3ccc(C4CC4)cc3)ccc2C1NC(=O)O[C@@H]1CN2CCC1CC2` (stereo partly drawn) [Example 281, (S)-quinuclidin-3-yl (5-(4-cyclopropylphenyl)-2,2-diethyl-2,3-dihydro-1H-inden-1-yl)carbamate] was 5 nM; that for `CCC1(CC)Cc2cc(-c3ccc(C(C)C)cc3)ccc2C1NC(=O)O[C@@H]1CN2CCC1CC2` (stereo partly drawn) [Example 282, (S)-quinuclidin-3-yl (2,2-diethyl-5-(4-isopropylphenyl)-2,3-dihydro-1H-inden-1-yl)carbamate] was 5.6 nM; that for `CCC1(CC)Cc2cc(-c3ccc(OC)cc3)ccc2C1NC(=O)O[C@@H]1CN2CCC1CC2` (stereo partly drawn) [Example 283, (S)-quinuclidin-3-yl (2,2-diethyl-5-(4-methoxyphenyl)-2,3-dihydro-1H-inden-1-yl)carbamate] was 17.2 nM.
`CCOc1ccc(-c2ccc3c(c2)CC(CC)(CC)C3NC(=O)O[C@@H]2CN3CCC2CC3)cc1` (stereo partly drawn) [Example 284, (S)-quinuclidin-3-yl (5-(4-ethoxyphenyl)-2,2-diethyl-2,3-dihydro-1H-inden-1-yl)carbamate] gave an IC50 of 8.5 nM.
Then `CCCOc1ccc(-c2ccc3c(c2)CC(CC)(CC)C3NC(=O)O[C@@H]2CN3CCC2CC3)cc1` (stereo partly drawn) [Example 285, (S)-quinuclidin-3-yl (2,2-diethyl-5-(4-propoxyphenyl)-2,3-dihydro-1H-inden-1-yl)carbamate], with 3.7 nM; and `CCC1(CC)Cc2cc(-c3ccc(OC(C)C)cc3)ccc2C1NC(=O)O[C@@H]1CN2CCC1CC2` (stereo partly drawn) [Example 286, (S)-quinuclidin-3-yl (2,2-diethyl-5-(4-isopropoxyphenyl)-2,3-dihydro-1H-inden-1-yl)carbamate], with 4.1 nM; and `CCC1(CC)Cc2cc(-c3ccc(CC(C)C)cc3)ccc2C1NC(=O)O[C@@H]1CN2CCC1CC2` (stereo partly drawn) [Example 287, (S)-quinuclidin-3-yl (2,2-diethyl-5-(4-isobutylphenyl)-2,3-dihydro-1H-inden-1-yl)carbamate], with 4.1 nM.
The value for `CCC1(CC)Cc2cc(-c3cccc(F)c3)ccc2C1NC(=O)O[C@@H]1CN2CCC1CC2` (stereo partly drawn) [Example 288, (S)-quinuclidin-3-yl (2,2-diethyl-5-(3-fluorophenyl)-2,3-dihydro-1H-inden-1-yl)carbamate] was 11.2 nM.
Then `CCC1(CC)Cc2cc(-c3cccc(OC)c3)ccc2C1NC(=O)O[C@@H]1CN2CCC1CC2` (stereo partly drawn) [Example 289, (S)-quinuclidin-3-yl (2,2-diethyl-5-(3-methoxyphenyl)-2,3-dihydro-1H-inden-1-yl)carbamate], with 7.4 nM; and `CCOc1cccc(-c2ccc3c(c2)CC(CC)(CC)C3NC(=O)O[C@@H]2CN3CCC2CC3)c1` (stereo partly drawn) [Example 290, (S)-quinuclidin-3-yl (5-(3-ethoxyphenyl)-2,2-diethyl-2,3-dihydro-1H-inden-1-yl)carbamate], with 12.3 nM.
In the case of `CCC1(CC)Cc2cc(-c3cccc(OC(C)C)c3)ccc2C1NC(=O)O[C@@H]1CN2CCC1CC2` (stereo partly drawn) [Example 291, (S)-quinuclidin-3-yl (2,2-diethyl-5-(3-isopropoxyphenyl)-2,3-dihydro-1H-inden-1-yl)carbamate], the IC50 was determined as 13.5 nM.
Then `CCc1cccc(-c2ccc3c(c2)CC(CC)(CC)C3NC(=O)O[C@@H]2CN3CCC2CC3)c1` (stereo partly drawn) [Example 292, (S)-quinuclidin-3-yl (2,2-diethyl-5-(3-ethylphenyl)-2,3-dihydro-1H-inden-1-yl)carbamate], with 7.8 nM; and `CCC1(CC)Cc2cc(-c3cccc(C(C)C)c3)ccc2C1NC(=O)O[C@@H]1CN2CCC1CC2` (stereo partly drawn) [Example 293, (S)-quinuclidin-3-yl (2,2-diethyl-5-(3-isopropylphenyl)-2,3-dihydro-1H-inden-1-yl)carbamate], with 8.7 nM.
The value for `CCC1(CC)Cc2cc(-c3cccc(C(C)(C)C)c3)ccc2C1NC(=O)O[C@@H]1CN2CCC1CC2` (stereo partly drawn) [Example 294, (S)-quinuclidin-3-yl (5-(3-(tert-butyl)phenyl)-2,2-diethyl-2,3-dihydro-1H-inden-1-yl)carbamate] was 10.4 nM.
`CCC1(CC)Cc2cc(-c3cccc(OC)c3OC)ccc2C1NC(=O)O[C@@H]1CN2CCC1CC2` (stereo partly drawn) [Example 295, (S)-quinuclidin-3-yl (5-(2,3-dimethoxyphenyl)-2,2-diethyl-2,3-dihydro-1H-inden-1-yl)carbamate]: the IC50 is 35 nM.
In turn, `CCC1(CC)Cc2cc(-c3ccc(OC)cc3OC)ccc2C1NC(=O)O[C@@H]1CN2CCC1CC2` (stereo partly drawn) [Example 296, (S)-quinuclidin-3-yl (5-(2,4-dimethoxyphenyl)-2,2-diethyl-2,3-dihydro-1H-inden-1-yl)carbamate] came in with an IC50 of 15.6 nM.
Then `CCC1(CC)Cc2cc(-c3cc(OC)ccc3OC)ccc2C1NC(=O)O[C@@H]1CN2CCC1CC2` (stereo partly drawn) [Example 297, (S)-quinuclidin-3-yl (5-(2,5-dimethoxyphenyl)-2,2-diethyl-2,3-dihydro-1H-inden-1-yl)carbamate], with 3 nM.
The value for `CCC1(CC)Cc2cc(-c3ccc(OC)c(OC)c3)ccc2C1NC(=O)O[C@@H]1CN2CCC1CC2` (stereo partly drawn) [Example 298, (S)-quinuclidin-3-yl (5-(3,4-dimethoxyphenyl)-2,2-diethyl-2,3-dihydro-1H-inden-1-yl)carbamate] was 63.2 nM; that for `CCC1(CC)Cc2cc(-c3cc(OC)cc(OC)c3)ccc2C1NC(=O)O[C@@H]1CN2CCC1CC2` (stereo partly drawn) [Example 299, (S)-quinuclidin-3-yl (5-(3,5-dimethoxyphenyl)-2,2-diethyl-2,3-dihydro-1H-inden-1-yl)carbamate] was 25.3 nM.

The values above are taken from patent publication US12522602B2, “Derivatives having 2,3-dihydro-1H-indene or 2,3-dihydrobenzofuran moiety or pharmaceutically acceptable salt thereof and pharmaceutical compositions comprising the same” (YUHAN CORPORATION, priority 2019, dated 2026).
